Reference: patent US10111885B2, “Compositions and therapeutic methods for the treatment of complement-associated diseases” (Resverlogix Corp., priority 2015, dated 2018)
Read-outs that look alike come from different tables or passages of the source.

Key:
MBL2 mRNA [1] = experiment: Complement gene mRNA expression, TaqMan real-time PCR, HepG2 cells; format: cell-based; conditions: Homo sapiens; HepG2, 48 h treatment; read-out: MBL2 (48 h) mRNA, half maximal inhibitory concentration (IC50)
Excerpt: (§1) In this example, mRNA levels from cultured cells were quantitated. The assay can be used to determine the effect of compound(s) on regulating mRNA levels, including those compounds in the present invention. Complement genes are expressed at high endogenous levels, but their expression can also be stimulated with various cytokines in inflammatory conditions. Experiments in this example target both basal and inflammatory complement gene expression. Compound mediated changes in gene expression and resulting mRNA levels are presented in Tables 2, 3 and 4 as well as FIGS. 1, 2, 3 and 4 below.
(§2) Huh-7 and HepG2 cells are liver-derived cell lines and are models for what can occur in the liver. Huh-7 cells (JCRB Cell Bank) were introduced to 96-well plates (^˜2.5×10^5 per well) in 100 μL DMEM containing 10% (v/v) FBS, 100 U/mL penicillin, 100 ug/mL streptomycin and 5 ug/mL plasmocin (all reagents from Gibco, except for the former, which was obtained from Invivogen). After 24 h, Huh-7 cells were treated with compounds in the same media formulation used for plating, and supplemented with 0.1% DMSO for the amount of time indicated in tables 2, 3, and 4. For select experiments, 24 h post-plating, cells were treated with cytokines and the compound of interest simultaneously, for a total treatment time of 48 h. Alternatively, 24 h after plating, cells were pre-treated with cytokines for 24 h before adding the compound of interest for 48 h. HepG2 cells (ATCC) were cultured in 96-well plates (^˜2.5×10^5 per well) in MEM containing 10% FBS, 1× non-essential amino acids, 1 mM sodium pyruvate, 2 mM L-glutamine, 100 U/mL penicillin, 100 ug/mL streptomycin and 5 ug/mL plasmocin. Serum amount was reduced to 0.5% for treatments with compound or cytokines. Timing of treatment of HepG2 cells with compounds and cytokines was as described for Huh-7 cells. Primary human hepatocytes (CellzDirect/Life Technologies) were plated in collagen coated 96-well plates at 70 000 cells/well, then overlaid with Matrigel™ as recommended by the supplier. Cells were treated with compounds of interest and/or cytokines for the indicated time points in the recommended media supplemented with 0.1% DMSO and 10% FBS (v/v). Cells were harvested by mRNA Catcher PLUS Kit (Life Technologies) followed by real-time PCR using the RNA UltraSense One-Step qRT-PCR System. The level of the mRNA of interest was measured by TaqMan real-time PCR relative to the endogenous control cyclophilin A in the same sample. […]
(§3) Downregulation of expression of components of the complement cascade will result in reduced activity of the pathway and thus will constitute a positive result. […] Table 4 lists the maximum reduction in the indicated mRNA measured in primary human hepatocytes treated with compounds for up to 72 hours. […]

C1S mRNA = experiment: as above; format: cell-based; conditions: Homo sapiens; HepG2, 48 h treatment; read-out: C1S (48 h) mRNA, half maximal inhibitory concentration (IC50)
Excerpt: as §1, §2, §3

MBL2 mRNA [2] = experiment: Complement gene mRNA expression, TaqMan real-time PCR, Huh-7 cells; format: cell-based; conditions: Homo sapiens; Huh-7, 48 h treatment; read-out: MBL2 (48 h) mRNA, half maximal inhibitory concentration (IC50)
Excerpt: as §1, §2, §3

C5 mRNA = experiment: as above; format: cell-based, human; conditions: for IC50: Homo sapiens
Excerpt: as §1
(§4) Huh-7 and HepG2 cells are liver-derived cell lines and are models for what can occur in the liver. Huh-7 cells (JCRB Cell Bank) were introduced to 96-well plates (^˜2.5×10^5 per well) in 100 μL DMEM containing 10% (v/v) FBS, 100 U/mL penicillin, 100 ug/mL streptomycin and 5 ug/mL plasmocin (all reagents from Gibco, except for the former, which was obtained from Invivogen). After 24 h, Huh-7 cells were treated with compounds in the same media formulation used for plating, and supplemented with 0.1% DMSO for the amount of time indicated in tables 2, 3, and 4. For select experiments, 24 h post-plating, cells were treated with cytokines and the compound of interest simultaneously, for a total treatment time of 48 h. Alternatively, 24 h after plating, cells were pre-treated with cytokines for 24 h before adding the compound of interest for 48 h. HepG2 cells (ATCC) were cultured in 96-well plates (^˜2.5×10^5 per well) in MEM containing 10% FBS, 1× non-essential amino acids, 1 mM sodium pyruvate, 2 mM L-glutamine, 100 U/mL penicillin, 100 ug/mL streptomycin and 5 ug/mL plasmocin. Serum amount was reduced to 0.5% for treatments with compound or cytokines. Timing of treatment of HepG2 cells with compounds and cytokines was as described for Huh-7 cells. Primary human hepatocytes (CellzDirect/Life Technologies) were plated in collagen coated 96-well plates at 70 000 cells/well, then overlaid with Matrigel™ as recommended by the supplier. Cells were treated with compounds of interest and/or cytokines for the indicated time points in the recommended media supplemented with 0.1% DMSO and 10% FBS (v/v). Cells were harvested by mRNA Catcher PLUS Kit (Life Technologies) followed by real-time PCR using the RNA UltraSense One-Step qRT-PCR System. The level of the mRNA of interest was measured by TaqMan real-time PCR relative to the endogenous control cyclophilin A in the same sample. Data were acquired using the ViiA-7 Real Time PCR System (Applied Biosystems).
(§5) Downregulation of expression of components of the complement cascade will result in reduced activity of the pathway and thus will constitute a positive result. Tables 2 and 3 list the concentration of compounds at which the level of the indicated mRNA is reduced by 50%, as well as the duration of treatment with compound. Table 4 lists the maximum reduction in the indicated mRNA measured in primary human hepatocytes treated with compounds for up to 72 hours. FIGS. 1, 2, 3 and 4 show effects of compounds on cytokine-induced (i.e. inflammatory) expression of complement genes in Huh-7 cells and HepG2 cells.

C3 mRNA = experiment: as above; format: cell-based, human; conditions: for IC50: Homo sapiens
Excerpt: as §1, §4, §5

complement C4 protein = experiment: Secreted complement protein ELISA, HepG2 cells; format: cell-based, human; conditions: HepG2, 72 h, ± standard deviation
Procedure: (§6) In this example, protein secretion from cells grown in culture in the presence of compound of interest was analyzed by enzyme linked immunosorbent assay (ELISA). In some cases, cultured cells were treated with cytokines and the compound of interest to mimic an inflammatory state. The method can be used to determine the effect of compounds, including those in the present invention, on the secretion of specific proteins from cells grown in culture under basal and cytokine stimulated (i.e. inflammatory) conditions (Table 7, FIGS. 5 and 6).
(§7) Huh-7 cells (JCRB Cell Bank) were introduced to 24-well plates in 500 μL DMEM supplemented with 10% (v/v) FBS, 100 U/mL penicillin, 100 ug/mL streptomycin and 5 ug/mL plasmocin (all reagents from Gibco, except for the former, which comes from Invivogen) at 200 000 cells/well. After 24 h, cells were treated with the compound of interest and/or cytokines in DMEM with 10% FBS containing 0.1% DMSO for a total treatment time of 72 h. Fresh media containing compounds and/or cytokines was introduced in the final 24 h of the experiment. At harvest, media were collected, debris was removed by brief centrifugation, and ELISA assays for the indicated proteins were performed as per the manufacturer's protocol. To correct for differences in cell numbers, values obtained for complement proteins were normalized to values for transferrin. HepG2 cells (ATCC) were cultured in MEM containing 10% FBS, 1× non-essential amino acids, 1 mM sodium pyruvate, 2 mM L-glutamine, 100 U/mL penicillin, 100 ug/mL streptomycin and 5 ug/mL plasmocin. Serum amount was reduced to 0.5% when compounds were present. Treatment combinations and timing were as described above for Huh-7 cells. Primary human hepatocytes (CellzDirect/Life Technologies) were plated in collagen coated 96-well plates at 70 000 cells/well, then overlaid with Matrigel™ as recommended by the supplier. Cells were treated with compounds of interest with or without the indicated cytokines for a total of 72 h in the recommended media supplemented with 10% FBS and 0.1% DMSO (v/v). Media were collected for measurements of secreted proteins.
(§8) The ELISA kits for detection of complement C3, C4, C5 and C9 were obtained from AssayPro (St. Charles, Mo.), while the ELISA reagents for transferrin detection were from Bethyl Laboratories (Montgomery, Tex.). Data were collected on a Thermo Scientific Multiskan GO apparatus. Downregulation of expression of components of the complement cascade will result in reduced activity of the pathway and thus will constitute a positive result.

complement C5 protein = experiment: Secreted complement protein ELISA, HepG2 cells; format: cell-based, human; conditions: HepG2, 72 h, ± standard deviation
Procedure: as §6, §7, §8

complement C3 protein = experiment: Secreted complement protein ELISA, HepG2 cells; format: cell-based, human; conditions: HepG2, 72 h, ± standard deviation
Procedure: as §6, §7, §8

[3] = read-out: C5 (72 h) mRNA, half maximal inhibitory concentration (IC50), Huh-7, 72 h treatment
[4] = Huh-7, 48 h treatment, read-out: C3 (48 h) mRNA, half maximal inhibitory concentration (IC50)
[5] = Huh-7 pre-treated with cytokines
[6] = Huh-7 treated simultaneously with cytokines

Structure (SMILES) | IC50 (MBL2 mRNA [1]) [nM] | IC50 (C1S mRNA) [nM] | IC50 (MBL2 mRNA [2]) [nM] | IC50 (C5 mRNA; [3]) [nM] | IC50 (C3 mRNA; Huh-7, 48 h treatment (Table 3), read-out: mRNA expression in Huh-7 cells: IC50 (uM), C3) [µM] | IC50 (C3 mRNA; [4]) [µM] | C4 secretion, percent maximum reduction in protein levels (complement C4 protein; 0.75 uM) [%] | C5 secretion, percent maximum reduction in protein levels (complement C5 protein; 0.75 uM) [%] | C3 secretion, percent maximum reduction in protein levels (complement C3 protein; 0.75 uM) [%] | IC50 (C5 mRNA; Huh-7, 48 h treatment, read-out: C5 (48 h) mRNA, half maximal inhibitory concentration (IC50)) [nM] | expression of complement component 5 at the mRNA level (FIG. 3) (C5 mRNA; [5]) | expression of complement component 5 at the mRNA level (FIG. 1) (C5 mRNA; [6]) | expression of complement component 3 at the mRNA level (FIG. 3) (C3 mRNA; [5]) | expression of complement component 3 at the mRNA level (FIG. 1) (C3 mRNA; [6]) | C4 secretion, percent maximum reduction in protein levels (complement C4 protein; 30 uM) [%] | C5 secretion, percent maximum reduction in protein levels (complement C5 protein; 30 uM) [%] | C3 secretion, percent maximum reduction in protein levels (complement C3 protein; 30 uM) [%]
Cc1sc2c(c1C)C(c1ccc(Cl)cc1)=N[C@@H](CC(=O)OC(C)(C)C)c1nnc(C)n1-2 [JQ1, (S)-tert-butyl 2-(4-(4-chlorophenyl)-2,3,9-trimethyl-6H-thieno[3,2-f][1,2,4]triazolo[4,3-a][1,4]diazepin-6-yl)acetate, reference compound] | 30 | 120 | 160 | 270 | 0.18 | 0.2 | 81 ± 9 | 82 ± 7 | 54 ± 5 |  |  |  |  |  |  |  | 
COc1cc(OC)c2c(=O)[nH]c(-c3cc(C)c(OCCO)c(C)c3)nc2c1 [RVX000222, 2-(4-(2-hydroxyethoxy)-3,5-dimethylphenyl)-5,7-dimethoxyquinazolin-4(3H)-one] | 3880 | 9560 | 16300 | 21800 |  | 1.9 |  |  |  | > 30000 | reduces expression | reduces expression | reduces expression | reduces expression | 65 ± 5 | 77 ± 4 | 34 ± 5
